# Experimental data from patent publication US10294228B2, “Breathing control modulating compounds, and methods of making and using same” (NEURAD LTD., priority 2015, dated 2019).
# Experiment: Polymorphic transformation by exposure to humidity
# Assay type: physicochemical
# Settings: >80% humidity, three days, ambient temperature; confirmed by XRPD and DSC
# Method: Approximately 10 mg of the solid as its initially obtained polymorphic form were placed in a 4 mL open vial. In a 20 mL vial, about 5 mL of distilled water were added and heated to about 50° C., then the vial was capped, and the contents were cooled for about 30 minutes at ambient temperature. Then the 20 mL vial was uncapped, the smaller vial was placed inside the bigger vial, the bigger vial was recapped, and the sample in the smaller vial was exposed and aged in an environment of approximately 80-95% relative humidity at ambient temperature for 3 days. Polymorphic transformation was confirmed by XRPD and DSC vs. that for the initially obtained polymorphic form.
compound,measurement,value
"CCCNc1nc(NC)nc2c(NCC(C)(C)O)nc(NC)nc12 [Compound 31h-1, 1-(2,6-Bis-methylamino-8-propylamino-pyrimido[5,4-d]pyrimidin-4-ylamino)-2-methyl-propan-2-ol]",polymorphic transformation on exposure to humidity,converted to form Tos-B (31h-2)
"CCCNc1nc(NC)nc2c(NCC(C)(C)O)nc(NC)nc12 [Compound 31d-1, 1-(2,6-Bis-methylamino-8-propylamino-pyrimido[5,4-d]pyrimidin-4-ylamino)-2-methyl-propan-2-ol]",polymorphic transformation on exposure to humidity,converted to form Mal-B (31d-2)
